# According to ChEMBL document CHEMBL4138307, “Click-Addressable Cassette for Photoaffinity Labeling” (ACS Med Chem Lett, 2018):
# The source made the active and inactive calls. The rule behind the calls is not given here.
# Key:
# [1] = target: Carbonic anhydrase 9 (Homo sapiens) (UniProt Q16790); test: Binding affinity to recombinant carbonic anhydrase 9 (unknown origin) at 5 to 10 uM preincubated for 2 hrs in dark followed by irradiation with LED UV flashlight at 365 nm for 30 mins in presence of 50 fold excess of 4-(2-((4-(4-(benzyl(prop-2-yn-1-yl)amino)piperidin-1-yl)-6-chloro-1,3,5-triazin-2-yl)amino)ethyl)benzenesulfonamide by SDS-PAGE based fluorescence imaging
# [2] = target: Carbonic anhydrase 9 (Homo sapiens) (UniProt Q16790); test: Binding affinity to carbonic anhydrase 9 in human MDA-MB-231 cell lysate at 5 uM preincubated for 3 hrs in dark followed by irradiation with LED UV flashlight at 365 nm for 30 mins in presence of 4-(2-((4-(4-(benzyl(prop-2-yn-1-yl)amino)piperidin-1-yl)-6-chloro-1,3,5-triazin-2-yl)amino)ethyl)benzenesulfonamide by biotin-azide/neutravidin agarose gel based Western blot analysis
# [3] = target: Carbonic anhydrase 9 (Homo sapiens) (UniProt Q16790); test: Binding affinity to carbonic anhydrase 9 in human MDA-MB-231 cell lysate at 5 uM preincubated for 3 hrs in dark followed by irradiation with LED UV flashlight at 365 nm for 30 mins by biotin-azide/neutravidin agarose gel based Western blot analysis
# [4] = target: Carbonic anhydrase 9 (Homo sapiens) (UniProt Q16790); test: Binding affinity to recombinant carbonic anhydrase 9 (unknown origin) at 5 to 10 uM preincubated for 2 hrs in dark followed by irradiation with LED UV flashlight at 365 nm for 30 mins in presence of coomassie brilliant blue G250 staining by SDS-PAGE based fluorescence imaging
# [5] = target: Carbonic anhydrase 9 (Homo sapiens) (UniProt Q16790); test: Binding affinity to recombinant carbonic anhydrase 9 (unknown origin) at 5 to 10 uM preincubated for 2 hrs in dark followed by irradiation with LED UV flashlight at 365 nm for 30 mins in presence of azide fluor 488 staining by SDS-PAGE based fluorescence imaging
# [6] = target: NT-3 growth factor receptor (Homo sapiens) (UniProt Q16288); test: Binding affinity to recombinant TrkC (unknown origin) at 10 to 25 uM incubated for 1 hr in dark in presence of azide fluor 488 staining by SDS-PAGE based fluorescence imaging
# [7] = target: NT-3 growth factor receptor (Homo sapiens) (UniProt Q16288); test: Binding affinity to recombinant TrkC (unknown origin) at 10 to 25 uM preincubated for 1 hr in dark followed by irradiation with LED UV flashlight at 365 nm for 30 mins in presence of azide fluor 488 staining by SDS-PAGE based fluorescence imaging
# [8] = target: NT-3 growth factor receptor (Homo sapiens) (UniProt Q16288); test: Binding affinity to recombinant TrkC (unknown origin) at 10 to 25 uM preincubated for 1 hr in dark followed by irradiation with LED UV flashlight at 365 nm for 30 mins in presence of 80 fold excess of (2S,2'S)-1,1'-((6-(4-(benzyl(prop-2-yn-1-yl)amino)piperidin-1-yl)-1,3,5-triazine-2,4-diyl)bis(piperazine-4,1-diyl))bis(2-(4-((1S,2S)-1-amino-2-methylbutyl)-1H-1,2,3-triazol-1-yl)-3-(4-hydroxyphenyl)propan-1-one) by SDS-PAGE based fluorescence imaging
# [9] = target: NT-3 growth factor receptor (Homo sapiens) (UniProt Q16288); test: Binding affinity to TrkC (unknown origin) expressed in mouse NIH3T3 cell lysate at 10 uM preincubated for 3 hrs in dark followed by irradiation with LED UV flashlight at 365 nm for 30 mins by biotin-azide/neutravidin agarose gel based Western blot analysis
# NT-3 growth factor receptor (Homo sapiens), sequence (Q16288 32-839 limits assumed): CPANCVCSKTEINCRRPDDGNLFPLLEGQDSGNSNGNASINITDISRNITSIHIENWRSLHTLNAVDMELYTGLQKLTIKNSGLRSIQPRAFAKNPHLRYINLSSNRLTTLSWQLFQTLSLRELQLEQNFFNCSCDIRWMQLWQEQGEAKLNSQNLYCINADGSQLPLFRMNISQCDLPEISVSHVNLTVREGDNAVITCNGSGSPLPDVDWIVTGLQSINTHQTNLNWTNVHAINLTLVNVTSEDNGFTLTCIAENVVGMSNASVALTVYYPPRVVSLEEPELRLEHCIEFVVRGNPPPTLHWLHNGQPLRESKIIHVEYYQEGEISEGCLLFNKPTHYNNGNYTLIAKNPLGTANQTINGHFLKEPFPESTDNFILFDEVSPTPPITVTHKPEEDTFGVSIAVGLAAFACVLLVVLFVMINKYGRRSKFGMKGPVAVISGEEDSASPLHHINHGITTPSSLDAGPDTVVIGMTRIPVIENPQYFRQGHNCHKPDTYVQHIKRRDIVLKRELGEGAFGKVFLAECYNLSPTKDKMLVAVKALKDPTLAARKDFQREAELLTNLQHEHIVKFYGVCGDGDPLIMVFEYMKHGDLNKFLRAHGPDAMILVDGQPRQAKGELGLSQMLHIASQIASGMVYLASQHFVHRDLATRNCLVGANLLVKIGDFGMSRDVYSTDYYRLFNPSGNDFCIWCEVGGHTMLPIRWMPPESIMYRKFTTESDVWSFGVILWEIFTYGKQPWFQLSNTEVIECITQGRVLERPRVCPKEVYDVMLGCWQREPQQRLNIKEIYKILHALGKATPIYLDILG
Activity [1],Activity [2],Activity [3],Activity [4],Activity [5],Activity [6],Activity [7],Activity [8],Activity [9],SMILES
inactive,inactive,Active,Active,Active,,,,,C#CCN(Cc1ccc(C2(C(F)(F)F)N=N2)cc1)C1CCN(c2nc(Cl)nc(NCCc3ccc(S(N)(=O)=O)cc3)n2)CC1
,,,,,inactive,Active,inactive,Active,C#CCN(Cc1ccc(C2(C(F)(F)F)N=N2)cc1)C1CCN(c2nc(N3CCN(C(=O)[C@H](Cc4ccc(O)cc4)n4cc([C@@H](N)[C@@H](C)CC)nn4)CC3)nc(N3CCN(C(=O)[C@H](Cc4ccc(O)cc4)n4cc([C@@H](N)[C@@H](C)CC)nn4)CC3)n2)CC1
